Reference: US20240209028A1, “CNP COMPOUNDS” (priority 2022, published 2024)
Starred links: 1 amine or outer side, 2 acyl side, 3 side chain; linkers in the order of their positions; H or OH if unused. Positions of bridges follow the written chain, without caps; N, C: chain ends. Residues, ends and D or L forms follow the SMILES beside them. *: point of attachment. C18 diacid = O=C(O)CCCCCCCCCCCCCCCCC(=O)*; γGlu = O=C(O)[C@H](CCC(=O)[*:2])N[*:1]

Columns and labels:
[1] = PK after i.v. and s.c. administration to domestic LYD pig; conditions: female, domestic LYD pig, pig, in vivo, sc
Protocol: The purpose of this study was to investigate pharmacokinetic and pharmacodynamic properties after intravenous (i.v.) and subcutaneous (s.c.) administration to Gottingen Minipig and domestic LYD pig, and to estimate bioavailability after s.c. dosing. Quantitative plasma analysis of CNP and cGMP levels were performed as described in
Animals and dosing: The pharmacokinetic and pharmacodynamic studies in Gottingen Minipig or domestic LYD pig were conducted at CRO Minerva Imaging or Novo Nordisk A/S, respectively. CNP compounds were dosed to normal female 1) Gottingen minipigs 6-12 months of age with an average weight of 22 kg or 2) domestic LYD pigs 4-5 months of age with and average weight of 80 kg. At least one week prior to dosing, permanent central venous catheters were implanted for blood sampling and intravenous (i.v.) dosing. For subcutaneous (s.c.) dosing, the pigs were ultrasound scanned and the optimal injection area laterally on the neck marked by a permanent tattoo. An insulin pen (NovoPen Echo or NovoPen 4) and insulin needle (NovoFine 32G/4 mm or NovoTwist 32G/5 mm) were used for accurate deposition of the CNP formulations in the subcutaneous fat tissue with the needle perpendicular to the skin.
CNP compounds were formulated according to the principles in General Methods of Preparation—Method G and were either A) 8 mM sodium phosphate, 250 mM glycerol, pH 6.5, B) 5 mM sodium acetate, 250 mM glycerol, pH 4.0, C) 5 mM sodium acetate, 240 mM propylene glycol, pH=4.0, D) 8 mM sodium phosphate, 250 mM glycerol, pH 7.5 or E) 20 mM sodium phosphate, 223 mM propylene glycol, pH 6.0.
Intravenously, the CNP compounds were dosed at 30-60 nmol/kg to Minipig and 15-43 nmol/kg to domestic pig using formulations A-E. Subcutaneously, the CNP compounds were dosed at 55-62 nmol/kg to Minipig and 20-30 nmol/kg to domestic pig using formulations A-D.
Sampling: Blood samples of approximately 1 mL were collected pre dose and up to 14 days post dose into EDTA-coated tubes (8 mM) for cGMP and CNP compound analysis by LC-MS. In few instances, cGMP was only analysed up to 48 hours post dose after intravenous dosing in domestic LYD pig. The blood samples were kept on wet ice for maximum 30 minutes until centrifugation for 10 minutes at 4° C. and minimum 1500G, and the plasma samples were stored at −20° C. until analysis.
Plasma concentration-time profiles were analyzed by non-compartmental PK analysis using Phoenix WinNonlin 8.1, Pharsight Inc., Mountain View, CA, USA. Calculation of the area under the plasma concentration-time curve (AUC) was based on the “linear up log down” method, and uniform weighting was used for estimation of the terminal rate constant (λz). S.c. bioavailability (F) was calculated as the dose-normalized AUC (AUC/dose) after s.c. administration divided by the AUC/dose after i.v. administration. […]

[2] = Mouse growth study (tail and body length); type: in vivo, mice (C57BL/6J); conditions: for body length higher compared to control group: 35 days; for change in tail length (from day 0) increased compared to control animals: after 35 days; for Tail length, Mean (%) change from day 0 / Body length, Mean (%) change from day 0: C57BL/6J mice
Protocol: The purpose of this study was to evaluate growth in mice after treatment with two doses of CNP compound.
Procedure: Mice (C57BL/6J, male, age 4 weeks; n=10) received daily subcutaneous injections of compound 9482 or vehicle for 35 days. Formulations were prepared according to the principles described in General Methods of Preparation—Method G (30 and 70 nmol/kg, 10 mL/kg; Formulation buffer 8 mM sodium phosphate, 250 mM glycerol, 0.007% polysorbate 20, pH 7.4). Body weight and tail and body length were measured weekly throughout the study. The increase in growth was expressed as percentage change from day (mean (SD)).
In Table 28, increase in tail length is expressed as percentage change from day 0 (mean (SD)). Statistically significant differences are indicated compared to control group (two-way ANOVA).
In Table 29, increase in body length is expressed as percentage change from day 0 (mean (SD)). Statistically significant differences are indicated compared to control group (two-way ANOVA).

[3] = both 30 and 70 nmol/kg daily s.c., p<0.05

SMILES: CC[C@H](C)[C@@H]1NC(=O)[C@H](CCCNC(=N)N)NC(=O)[C@H](CC(=O)O)NC(=O)[C@H](CC(C)C)NC(=O)[C@H](CCCCN)NC(=O)[C@H](CC(C)C)NC(=O)CNC(=O)[C@H](Cc2ccccc2)NC(=O)[C@@H](NC(=O)CNC(=O)[C@H](CCCCN)NC(=O)[C@H](CO)NC(=O)[C@H](CC(C)C)NC(=O)CNC(=O)[C@H](CCCCN)NC(=O)[C@H](CCCCN)NC(=O)[C@H](CCC(N)=O)NC(=O)[C@H](C)NC(=O)CNC(=O)[C@H](Cc2c[nH]cn2)NC(=O)[C@H](CCC(=O)O)NC(=O)COCCOCCNC(=O)COCCOCCNC(=O)CC[C@H](NC(=O)CCCCCCCCCCCCCCCCC(=O)O)C(=O)O)CSSC[C@@H](C(=O)O)NC(=O)CNC(=O)[C@H](CC(C)C)NC(=O)CNC(=O)[C@H](CO)NC(=O)[C@H](CC(C)C)NC(=O)[C@H](CO)NC(=O)CNC1=O [compound 1235]
- bioavailability [1]: 25%

SMILES: CC[C@H](C)[C@@H]1NC(=O)[C@H](CCCNC(=N)N)NC(=O)[C@H](CC(=O)O)NC(=O)[C@H](CC(C)C)NC(=O)[C@@H]2CCCN2C(=O)[C@H](CC(C)C)NC(=O)CNC(=O)[C@H](Cc2ccccc2)NC(=O)[C@@H](NC(=O)CNC(=O)[C@H](CO)NC(=O)[C@H](CO)NC(=O)[C@H](CC(C)C)NC(=O)CNC(=O)[C@H](CCCCN)NC(=O)[C@H](CCCCN)NC(=O)[C@H](CCC(N)=O)NC(=O)[C@H](C)NC(=O)CNC(=O)[C@H](CCCCN)NC(=O)[C@H](Cc2ccc(O)cc2)NC(=O)[C@H](CCCCN)NC(=O)[C@H](CCCNC(=N)N)NC(=O)[C@H](C)NC(=O)[C@H](CCC(N)=O)NC(=O)[C@@H]2CCCN2C(=O)[C@H](Cc2c[nH]cn2)NC(=O)[C@H](CCC(=O)O)NC(=O)[C@H](CCC(N)=O)NC(=O)CC[C@H](NC(=O)CC[C@H](NC(=O)CC[C@H](NC(=O)CC[C@H](NC(=O)CC[C@H](NC(=O)CCCCCCCCCCCCCCCCC(=O)O)C(=O)O)C(=O)O)C(=O)O)C(=O)O)C(=O)O)CSSC[C@@H](C(=O)O)NC(=O)CNC(=O)[C@H](CC(C)C)NC(=O)CNC(=O)[C@H](CO)NC(=O)[C@H](CC(C)C)NC(=O)[C@H](CO)NC(=O)CNC1=O [compound 9482] ({C18 diacid-γGlu-γGlu-γGlu-γGlu-γGlu}-QEHPQARKYKGAQKKGLSSGCFGLPLDRIGSLSGLGC-OH; disulfide 21-37)
- body length higher compared to control group ([2]; 30 nmol/kg daily s.c.): 30%
- change in tail length (from day 0) increased compared to control animals ([2]; 30 nmol/kg daily s.c.): 45%
- Tail length, Mean (%) change from day 0 ([2]; 30 nmol/kg daily s.c., day 7): 11.8%
- Body length, Mean (%) change from day 0 ([2]; 30 nmol/kg daily s.c., day 8): 10.2%
- Tail length, Mean (%) change from day 0 ([2]; 30 nmol/kg daily s.c., day 14): 16.0%
- Body length, Mean (%) change from day 0 ([2]; 30 nmol/kg daily s.c., day 18): 17.5%
- Tail length, Mean (%) change from day 0 ([2]; 30 nmol/kg daily s.c., day 21): 24.1%
- Body length, Mean (%) change from day 0 ([2]; 30 nmol/kg daily s.c., day 25): 22.5%
- Tail length, Mean (%) change from day 0 ([2]; 30 nmol/kg daily s.c., day 28): 25.6%
- Body length, Mean (%) change from day 0 ([2]; 30 nmol/kg daily s.c., day 35): 27.4%
- Tail length, Mean (%) change from day 0 ([2]; 30 nmol/kg daily s.c., day 35): 28.5%
- body length higher compared to control group ([2]; 70 nmol/kg daily s.c.): 67%
- change in tail length (from day 0) increased compared to control animals ([2]; 70 nmol/kg daily s.c.): 83%
- Tail length, Mean (%) change from day 0 ([2]; 70 nmol/kg daily s.c., day 7): 14.3%
- Body length, Mean (%) change from day 0 ([2]; 70 nmol/kg daily s.c., day 8): 12.8%
- Tail length, Mean (%) change from day 0 ([2]; 70 nmol/kg daily s.c., day 14): 20.3%
- Body length, Mean (%) change from day 0 ([2]; 70 nmol/kg daily s.c., day 18): 21.5%
- Tail length, Mean (%) change from day 0 ([2]; 70 nmol/kg daily s.c., day 21): 29.0%
- Body length, Mean (%) change from day 0 ([2]; 70 nmol/kg daily s.c., day 25): 29.0%
- Tail length, Mean (%) change from day 0 ([2]; 70 nmol/kg daily s.c., day 28): 32.0%
- Body length, Mean (%) change from day 0 ([2]; 70 nmol/kg daily s.c., day 35): 35.3%
- Tail length, Mean (%) change from day 0 ([2]; 70 nmol/kg daily s.c., day 35): 35.7%
- time after which body length was significantly increased compared to control [2, 3]: 18 days
- time after which tail length was significantly increased compared to control [2, 3]: 7 days
